{"source": "patent US20210299198A1", "about": "“DIABETES-ALLEVIATING OR ANTIOXIDANT COMPOSITION COMPRISING YEAST EXTRACT AND METHOD FOR PREPARING YEAST EXTRACT” (COENBIO CO., LTD., priority 2018, published 2021)", "key": {"[1]": {"assay": "Free radical scavenging assay using DPPH", "format": "biochemical", "procedure": "An antioxidant scavenges DPPH radicals, losing its original color and being made transparent. The test sample was mixed with 2,2-diphenyl-1-picrylhydrazyl (DPPH, 100 μM) in a ratio of 1:20 and the mixture was stored at 37° C. for 30 min. After completion of the reaction, the absorbance was measured at 517 nm using a spectrophotometer. A lower absorbance indicates a higher antioxidant activity. […] The results are shown in Tables 3 and 4 (see FIGS. 3 and 7)."}, "[2]": {"assay": "Radical cation de-colorization assay using ABTS", "format": "biochemical", "procedure": "7 mM ABTS was mixed with 2.45 mM potassium persulfate and incubated at room temperature for 16 h to create ABTS cations (ABTS^+). […] The results are shown in Tables 5 and 6 (see FIGS. 4 and 8)."}, "[3]": {"format": "biochemical", "procedure": "First, 50 μL of potassium ferricyanide and 20 μL of each sample were added to 50 μL of a 0.2 M phosphate buffer solution (pH 6.6) and the mixture was allowed to react at 50° C. for 20 min. After completion of the reaction, 50 μL of a 10% TCA solution was added, followed by centrifugation at 3000×g for 20 min. 100 μL of the supernatant, 200 μL of triple-distilled water, and 20 μL of 0.1% ferric chloride were added, and the absorbance was measured at 700 nm. Trolox and BHA were used as positive controls."}}, "note": "Read-outs that look alike come from different tables or passages of the source.", "data": [{"smiles": "O=C1O[C@H]([C@@H](O)CO)C(O)=C1O", "note": "[Ascorbic acid, ascorbic acid]", "values": [{"measurement": "DPPH scavenging activities (IC50) AVERAGE", "setting": "[1]; yeast extracts 1", "result": 10, "unit": "µg/mL"}, {"measurement": "DPPH scavenging activities (IC50) AVERAGE", "setting": "[1]; yeast extracts 2", "result": 10, "unit": "µg/mL"}, {"measurement": "ABTS scavenging activities (IC50) AVERAGE", "setting": "[2]; yeast extracts 1", "result": 260, "unit": "µg/mL"}, {"measurement": "ABTS scavenging activities (IC50) AVERAGE", "setting": "[2]; yeast extracts 2", "result": 260, "unit": "µg/mL"}, {"measurement": "Reducing power activities (absorbance at 700 nm)", "setting": "[3]; yeast extract 2, 15.625 μg/mL", "result": "0.058 ± 0.001"}, {"measurement": "Reducing power activities (absorbance at 700 nm)", "setting": "[3]; yeast extract 2, 62.5 μg/mL", "result": "0.267 ± 0.002"}, {"measurement": "Reducing power activities (absorbance at 700 nm)", "setting": "[3]; yeast extract 2, 250 μg/mL", "result": "0.940 ± 0.005"}, {"measurement": "Reducing power activities (absorbance at 700 nm)", "setting": "[3]; yeast extract 2, 1000 μg/mL", "result": "1.146 ± 0.008"}, {"measurement": "Reducing power activities (absorbance at 700 nm)", "setting": "[3]; yeast extracts 1, 15.625 μg/mL", "result": "0.058 ± 0.001"}, {"measurement": "Reducing power activities (absorbance at 700 nm)", "setting": "[3]; yeast extracts 1, 62.5 μg/mL", "result": "0.267 ± 0.002"}, {"measurement": "Reducing power activities (absorbance at 700 nm)", "setting": "[3]; yeast extracts 1, 250 μg/mL", "result": "0.940 ± 0.005"}, {"measurement": "Reducing power activities (absorbance at 700 nm)", "setting": "[3]; yeast extracts 1, 1000 μg/mL", "result": "1.146 ± 0.008"}]}]}
